Reference: publication PMC8349882 (Molecular cell, 2021)

Molecular target: GLR3.4-S1S2 (Arabidopsis thaliana, UniProt Q8GXJ4, DEL602-708)
Assay: crystal structure
Format: binding
Conditions: endogenous ligand from expression, none added

Sequence of GLR3.4-S1S2 (Q8GXJ4 492-601, stated change not applied): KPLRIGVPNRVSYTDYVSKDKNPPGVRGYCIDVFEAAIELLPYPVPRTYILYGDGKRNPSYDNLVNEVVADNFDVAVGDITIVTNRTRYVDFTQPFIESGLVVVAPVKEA
Sequence of GLR3.4-S1S2 (Q8GXJ4 709-842, stated change not applied): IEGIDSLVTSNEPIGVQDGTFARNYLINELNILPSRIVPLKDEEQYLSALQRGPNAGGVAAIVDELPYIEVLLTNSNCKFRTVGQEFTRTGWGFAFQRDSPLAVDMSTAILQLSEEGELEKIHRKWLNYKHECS

For `N[C@@H](CO)C(=O)O` [serine], the crystal structure was “The serine-bound LBD structure was solved without adding the ligand to the protein”.
